Data as given in the NIST ThermoML archive (doi:10.1016/j.jct.2011.03.013).
Values joined by “and” are separate entries in the source; they are usually repeats but may differ in a detail not shown here. Equal entries are not always repeated. Numbers after ± are expanded uncertainties.

Conditions: Crystal; for vapor or sublimation pressure: Calculated from knudsen effusion weight loss; for molar enthalpy of sublimation: 298.15 K, Drop Calorimetry

N#Cc1cccc2ccccc12 [1-cyanonaphthalene]
Conditions | molar enthalpy of sublimation [kcal/mol] | vapor or sublimation pressure
– | 21.1 ± 0.813 | –
289.1 K | – | 0.00012 ± 6e-06 kPa and 0.000125 ± 6e-06 kPa
291.12 K | – | 0.000163 ± 8e-06 kPa and 0.000156 ± 8e-06 kPa and 0.000157 ± 8e-06 kPa
293.12 K | – | 0.000208 ± 1e-05 kPa and 0.0002 ± 1e-05 kPa and 0.000196 ± 1e-05 kPa
295.12 K | – | 0.000275 ± 1.4e-05 kPa and 0.000251 ± 1.3e-05 kPa and 0.000265 ± 1.3e-05 kPa
297.13 K | – | 0.000324 ± 1.6e-05 kPa and 0.000319 ± 1.6e-05 kPa
299.13 K | – | 0.000426 ± 2.1e-05 kPa and 0.000418 ± 2.1e-05 kPa and 0.000416 ± 2.1e-05 kPa
301.12 K | – | 0.000535 ± 2.7e-05 kPa and 0.000532 ± 2.7e-05 kPa and 0.000527 ± 2.6e-05 kPa
303.3 K | – | 0.000724 ± 3.6e-05 kPa and 0.00069 ± 3.5e-05 kPa and 0.000686 ± 3.4e-05 kPa
305.12 K | – | 0.000843 ± 4.2e-05 kPa and 0.000849 ± 4.2e-05 kPa and 0.00084 ± 4.2e-05 kPa
307 K | – | 0.001033 ± 0.0001 kPa and 0.001044 ± 0.00011 kPa and 0.001034 ± 0.0001 kPa

N#Cc1ccc2ccccc2c1 [2-naphthalenecarbonitrile]
Conditions | molar enthalpy of sublimation [kcal/mol] | vapor or sublimation pressure
– | 21.7 ± 0.765 | –
296.18 K | – | 9e-05 ± 5e-06 kPa and 9.2e-05 ± 5e-06 kPa and 9.1e-05 ± 5e-06 kPa
298.11 K | – | 0.000115 ± 6e-06 kPa and 0.000117 ± 6e-06 kPa and 0.000116 ± 6e-06 kPa
300.19 K | – | 0.000159 ± 8e-06 kPa and 0.000153 ± 8e-06 kPa and 0.000154 ± 8e-06 kPa
302.18 K | – | 0.000196 ± 1e-05 kPa and 0.000201 ± 1e-05 kPa and 0.000197 ± 1e-05 kPa
304.1 K | – | 0.000245 ± 1.2e-05 kPa and 0.000244 ± 1.2e-05 kPa
306.18 K | – | 0.000319 ± 1.6e-05 kPa and 0.000303 ± 1.5e-05 kPa and 0.000304 ± 1.5e-05 kPa
308.15 K | – | 0.000391 ± 2e-05 kPa and 0.000388 ± 1.9e-05 kPa and 0.000396 ± 2e-05 kPa
310.09 K | – | 0.000487 ± 2.4e-05 kPa and 0.000485 ± 2.4e-05 kPa and 0.000491 ± 2.5e-05 kPa
312.19 K | – | 0.000636 ± 3.2e-05 kPa and 0.000617 ± 3.1e-05 kPa and 0.000618 ± 3.1e-05 kPa
314.16 K | – | 0.000783 ± 3.9e-05 kPa and 0.000762 ± 3.8e-05 kPa and 0.000803 ± 4e-05 kPa
316.1 K | – | 0.000948 ± 4.7e-05 kPa and 0.000947 ± 4.7e-05 kPa and 0.000994 ± 5e-05 kPa
